The results in this text go back to patent publication US8574563B2 (Bristol-Myers Squibb Company, priority 2006, dated 2013).

This assay relates to HCV 1b-377-neo replicon cells. In words: HCV replicon assay, HCV 1b-377-neo replicon cells (1b FRET). It counts as cell-based, Hepatitis C virus genotype 1b. The settings on record: HCV 1b-377-neo replicon cells, HCV 1b genotype, read-out: EC50 range against HCV 1b (Table 2, Range). In a few lines: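 Compounds were tested in genotype 1b subgenomic replicon cells carrying a neomycin marker, alongside a matched replicon line with an NS5A Y2065H substitution that confers resistance to a reference NS5A inhibitor.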

Where two headings read alike, the source gives them in different places.

As to `COC(=O)N[C@@H](C(=O)N1CCC[C@H]1c1ncc(-c2ccc(-c3ccc(-c4cnc([C@@H]5CCCN5C(=O)c5cscn5)[nH]4)cc3)cc2)[nH]1)c1ccccc1` [Example 84-44, methyl ((1R)-2-oxo-1-phenyl-2-((2S)-2-(5-(4′-(2-((2S)-1-(1,3-thiazol-4-ylcarbonyl)-2-pyrrolidinyl)-1H-imidazol-5-yl)-4-biphenylyl)-1H-imidazol-2-yl)-1-pyrrolidinyl)ethyl)carbamate], the EC50 (as a rule, the concentration giving half of the maximal effect) (Hepatitis C virus) fell in the range of 0.001 to 0.999 nM.
Same read-out and setting: for `COC(=O)N[C@@H](C(=O)N1CCC[C@H]1c1ncc(-c2ccc(-c3ccc(-c4cnc([C@@H]5CCCN5C(=O)C(c5cccs5)N(C)C)[nH]4)cc3)cc2)[nH]1)c1ccccc1` (stereo partly drawn) [Example 84-46, methyl ((1R)-2-((2S)-2-(5-(4′-(2-((2S)-1-((dimethylamino)(2-thienyl)acetyl)-2-pyrrolidinyl)-1H-imidazol-5-yl)-4-biphenylyl)-1H-imidazol-2-yl)-1-pyrrolidinyl)-2-oxo-1-phenylethyl)carbamate] the value was 0.001 to 0.999 nM.
As for `COC(=O)N[C@@H](C(=O)N1CCC[C@H]1c1ncc(-c2ccc(-c3ccc(-c4cnc([C@@H]5CCCN5C(=O)C(c5ccsc5)N(C)C)[nH]4)cc3)cc2)[nH]1)c1ccccc1` (stereo partly drawn) [Example 84-47, methyl ((1R)-2-((2S)-2-(5-(4′-(2-((2S)-1-((dimethylamino)(3-thienyl)acetyl)-2-pyrrolidinyl)-1H-imidazol-5-yl)-4-biphenylyl)-1H-imidazol-2-yl)-1-pyrrolidinyl)-2-oxo-1-phenylethyl)carbamate], the EC50 (Hepatitis C virus) was in the range of 0.001 to 0.999 nM.
On the same count and under the same terms, for `COC(=O)N[C@@H](C(=O)N1CCC[C@H]1c1ncc(-c2ccc(-c3ccc(-c4cnc([C@@H]5CCCN5C(=O)C(c5csc(C)n5)N(C)C)[nH]4)cc3)cc2)[nH]1)c1ccccc1` (stereo partly drawn) [Example 84-48, methyl ((1R)-2-((2S)-2-(5-(4′-(2-((2S)-1-((dimethylamino)(2-methyl-1,3-thiazol-4-yl)acetyl)-2-pyrrolidinyl)-1H-imidazol-5-yl)-4-biphenylyl)-1H-imidazol-2-yl)-1-pyrrolidinyl)-2-oxo-1-phenylethyl)carbamate] the value was 0.001 to 0.999 nM.
Still for that read-out and setting: the result for `COC(=O)N[C@@H](C(=O)N1CCC[C@H]1c1ncc(-c2ccc(-c3ccc(-c4cnc([C@@H]5CCCN5C(=O)C(c5noc6ccccc56)N(C)C)[nH]4)cc3)cc2)[nH]1)c1ccccc1` (stereo partly drawn) [Example 84-49, methyl ((1R)-2-((2S)-2-(5-(4′-(2-((2S)-1-(1,2-benzisoxazol-3-yl(dimethylamino)acetyl)-2-pyrrolidinyl)-1H-imidazol-5-yl)-4-biphenylyl)-1H-imidazol-2-yl)-1-pyrrolidinyl)-2-oxo-1-phenylethyl)carbamate] reads 0.001 to 0.999 nM.
For `COC(=O)NC(C(=O)N1CCCC1c1ncc(-c2ccc(-c3ccc(-c4cnc(C5CCCN5C(=O)C(c5csc6ccccc56)N(C)C)[nH]4)cc3)cc2)[nH]1)c1ccccc1` [Example 84-50, methyl ((1R)-2-((2S)-2-(5-(4′-(2-((2S)-1-(1-benzothiophen-3-yl(dimethylamino)acetyl)-2-pyrrolidinyl)-1H-imidazol-5-yl)-4-biphenylyl)-1H-imidazol-2-yl)-1-pyrrolidinyl)-2-oxo-1-phenylethyl)carbamate], the 50% effective concentration (EC50) was in the range of 0.001 to 0.999 nM.
On to `COC(=O)N[C@@H](C(=O)N1CCC[C@H]1c1ncc(-c2ccc(-c3ccc(-c4cnc([C@@H]5CCCN5C(=O)C(c5cccc6ccccc56)N(C)C)[nH]4)cc3)cc2)[nH]1)c1ccccc1` (stereo partly drawn) [Example 84-51, methyl ((1R)-2-((2S)-2-(5-(4′-(2-((2S)-1-((dimethylamino)(1-naphthyl)acetyl)-2-pyrrolidinyl)-1H-imidazol-5-yl)-4-biphenylyl)-1H-imidazol-2-yl)-1-pyrrolidinyl)-2-oxo-1-phenylethyl)carbamate], for which, for the setting “Hepatitis C virus”, the half-maximal effective concentration (EC50) lay within 0.001 to 0.999 nM.
Still for that read-out and setting: for `COC(=O)N[C@@H](C(=O)N1CCC[C@H]1c1ncc(-c2ccc(-c3ccc(-c4cnc([C@@H]5CCCN5C(=O)C(c5cnc6ccccc6c5)N(C)C)[nH]4)cc3)cc2)[nH]1)c1ccccc1` (stereo partly drawn) [Example 84-52, methyl ((1R)-2-((2S)-2-(5-(4′-(2-((2S)-1-((dimethylamino)(3-quinolinyl)acetyl)-2-pyrrolidinyl)-1H-imidazol-5-yl)-4-biphenylyl)-1H-imidazol-2-yl)-1-pyrrolidinyl)-2-oxo-1-phenylethyl)carbamate] the value was 0.001 to 0.999 nM; for `COC(=O)N[C@@H](C(=O)N1CCC[C@H]1c1ncc(-c2ccc(-c3ccc(-c4cnc([C@@H]5CCCN5C(=O)C(c5ccc6sc(C)nc6c5)N(C)C)[nH]4)cc3)cc2)[nH]1)c1ccccc1` (stereo partly drawn) [Example 84-53, methyl ((1R)-2-((2S)-2-(5-(4′-(2-((2S)-1-((dimethylamino)(2-methyl-1,3-benzothiazol-5-yl)acetyl)-2-pyrrolidinyl)-1H-imidazol-5-yl)-4-biphenylyl)-1H-imidazol-2-yl)-1-pyrrolidinyl)-2-oxo-1-phenylethyl)carbamate], 0.001 to 0.999 nM.
Still for that read-out and setting: for `COC(=O)N[C@@H](C(=O)N1CCC[C@H]1c1ncc(-c2ccc(-c3ccc(-c4cnc([C@@H]5CCCN5C(=O)C(c5cccc(C(F)(F)F)c5)N(C)C)[nH]4)cc3)cc2)[nH]1)c1ccccc1` (stereo partly drawn) [Example 84-54, methyl ((1R)-2-((2S)-2-(5-(4′-(2-((2S)-1-((dimethylamino)(3-(trifluoromethyl)phenyl)acetyl)-2-pyrrolidinyl)-1H-imidazol-5-yl)-4-biphenylyl)-1H-imidazol-2-yl)-1-pyrrolidinyl)-2-oxo-1-phenylethyl)carbamate] the value was 0.001 to 0.999 nM; for `COC(=O)N[C@@H](C(=O)N1CCC[C@H]1c1ncc(-c2ccc(-c3ccc(-c4cnc([C@@H]5CCCN5C(=O)C(c5ccccc5C(F)(F)F)N(C)C)[nH]4)cc3)cc2)[nH]1)c1ccccc1` (stereo partly drawn) [Example 84-55, methyl ((1R)-2-((2S)-2-(5-(4′-(2-((2S)-1-((dimethylamino)(2-(trifluoromethyl)phenyl)acetyl)-2-pyrrolidinyl)-1H-imidazol-5-yl)-4-biphenylyl)-1H-imidazol-2-yl)-1-pyrrolidinyl)-2-oxo-1-phenylethyl)carbamate], 0.001 to 0.999 nM.
Still for that read-out and setting: the result for `COC(=O)N[C@@H](C(=O)N1CCC[C@H]1c1ncc(-c2ccc(-c3ccc(-c4cnc([C@@H]5CCCN5C(=O)C(c5ccccc5Cl)N(C)C)[nH]4)cc3)cc2)[nH]1)c1ccccc1` (stereo partly drawn) [Example 84-56, methyl ((1R)-2-((2S)-2-(5-(4′-(2-((2S)-1-((2-chlorophenyl)(dimethylamino)acetyl)-2-pyrrolidinyl)-1H-imidazol-5-yl)-4-biphenylyl)-1H-imidazol-2-yl)-1-pyrrolidinyl)-2-oxo-1-phenylethyl)carbamate] reads 0.001 to 0.999 nM; that for `COC(=O)N[C@@H](C(=O)N1CCC[C@H]1c1ncc(-c2ccc(-c3ccc(-c4cnc([C@@H]5CCCN5C(=O)C(c5cccc(Cl)c5)N(C)C)[nH]4)cc3)cc2)[nH]1)c1ccccc1` (stereo partly drawn) [Example 84-57, methyl ((1R)-2-((2S)-2-(5-(4′-(2-((2S)-1-((3-chlorophenyl)(dimethylamino)acetyl)-2-pyrrolidinyl)-1H-imidazol-5-yl)-4-biphenylyl)-1H-imidazol-2-yl)-1-pyrrolidinyl)-2-oxo-1-phenylethyl)carbamate], 0.001 to 0.999 nM.
As for `COC(=O)N[C@@H](C(=O)N1CCC[C@H]1c1ncc(-c2ccc(-c3ccc(-c4cnc([C@@H]5CCCN5C(=O)C(c5ccc(Cl)cc5)N(C)C)[nH]4)cc3)cc2)[nH]1)c1ccccc1` (stereo partly drawn) [Example 84-58, methyl ((1R)-2-((2S)-2-(5-(4′-(2-((2S)-1-((4-chlorophenyl)(dimethylamino)acetyl)-2-pyrrolidinyl)-1H-imdiazol-5-yl)-4-biphenylyl)-1H-imidazol-2-yl)-1-pyrrolidinyl)-2-oxo-1-phenylethyl)carbamate], the EC50 lay in the range of 0.001 to 0.999 nM.
In the case of `COC(=O)N[C@@H](C(=O)N1CCC[C@H]1c1ncc(-c2ccc(-c3ccc(-c4cnc([C@@H]5CCCN5C(=O)C(c5ccccc5F)N(C)C)[nH]4)cc3)cc2)[nH]1)c1ccccc1` (stereo partly drawn) [Example 84-59, methyl ((1R)-2-((2S)-2-(5-(4′-(2-((2S)-1-((dimethylamino)(2-fluorophenyl)acetyl)-2-pyrrolidinyl)-1H-imidazol-5-yl)-4-biphenylyl)-1H-imidazol-2-yl)-1-pyrrolidinyl)-2-oxo-1-phenylethyl)carbamate], the EC50 (Hepatitis C virus) was 0.001 to 0.999 nM.
Still for that read-out and setting: the result for `COC(=O)N[C@@H](C(=O)N1CCC[C@H]1c1ncc(-c2ccc(-c3ccc(-c4cnc([C@@H]5CCCN5C(=O)C(c5cccc(F)c5)N(C)C)[nH]4)cc3)cc2)[nH]1)c1ccccc1` (stereo partly drawn) [Example 84-60, methyl ((1R)-2-((2S)-2-(5-(4′-(2-((2S)-1-((dimethylamino)(3-fluorophenyl)acetyl)-2-pyrrolidinyl)-1H-imidazol-5-yl)-4-biphenylyl)-1H-imidazol-2-yl)-1-pyrrolidinyl)-2-oxo-1-phenylethyl)carbamate] reads 0.001 to 0.999 nM; that for `COC(=O)N[C@@H](C(=O)N1CCC[C@H]1c1ncc(-c2ccc(-c3ccc(-c4cnc([C@@H]5CCCN5C(=O)C(c5ccccn5)N(C)C)[nH]4)cc3)cc2)[nH]1)c1ccccc1` (stereo partly drawn) [Example 84-61, methyl ((1R)-2-((2S)-2-(5-(4′-(2-((2S)-1-((dimethylamino)(2-pyridinyl)acetyl)-2-pyrrolidinyl)-1H-imidazol-5-yl)-4-biphenylyl)-1H-imidazol-2-yl)-1-pyrrolidinyl)-2-oxo-1-phenylethyl)carbamate], 0.001 to 0.999 nM.
On the same count and under the same terms, the result for `COC(=O)N[C@@H](C(=O)N1CCC[C@H]1c1nc(-c2ccc(-c3ccc(-c4cnc([C@@H]5CCCN5C(=O)C(c5cccnc5)N(C)C)[nH]4)cc3)cc2)c[nH]1)c1ccccc1` (stereo partly drawn) [Example 84-62, methyl ((1R)-2-((2S)-2-(4-(4′-(2-((2S)-1-((dimethylamino)(3-pyridinyl)acetyl)-2-pyrrolidinyl)-1H-imidazol-5-yl)-4-biphenylyl)-1H-imidazol-2-yl)-1-pyrrolidinyl)-2-oxo-1-phenylethyl)carbamate] reads 0.001 to 0.999 nM.
